From the kinase profiling compilation of Christmann-Franck et al. (2016)
Several values for one entry are separate records, joined by “and”; a condition that tells them apart may be missing. Equal entries are not always repeated.

Experiments:
Test in all cases: radiometric filter-binding kinase assay, Kinase HotSpot
Settings in all cases: compound 0.5 µM; ATP 10 µM
MARK3 (human) = MARK3 (human) (UniProt P27448)
IRAK4 (human) = IRAK4 (human) (UniProt Q9NWZ3)
MAP4K4 (human) = MAP4K4 (human) (UniProt O95819)
ACVR1 (human) = ACVR1 (human) (UniProt Q04771)
STK25 (human) = STK25 (human) (UniProt O00506)
STK24 (human) = STK24 (human) (UniProt Q9Y6E0)
PRKCB1 (human) = PRKCB1 (human) (UniProt P05771)
[1] = tested on: MKNK1 (human), Q9BUB5 [T385D; 165-205 del]
MARK4 (human) = MARK4 (human) (UniProt Q96L34)
MAP3K2 (human) = MAP3K2 (human) (UniProt Q9Y2U5)
SRMS (human) = SRMS (human) (UniProt Q9H3Y6)
MAPK8 (human) = MAPK8 (human) (UniProt P45983)
Sequence of MAPK8 (human) (P45983 whole entry, looked up): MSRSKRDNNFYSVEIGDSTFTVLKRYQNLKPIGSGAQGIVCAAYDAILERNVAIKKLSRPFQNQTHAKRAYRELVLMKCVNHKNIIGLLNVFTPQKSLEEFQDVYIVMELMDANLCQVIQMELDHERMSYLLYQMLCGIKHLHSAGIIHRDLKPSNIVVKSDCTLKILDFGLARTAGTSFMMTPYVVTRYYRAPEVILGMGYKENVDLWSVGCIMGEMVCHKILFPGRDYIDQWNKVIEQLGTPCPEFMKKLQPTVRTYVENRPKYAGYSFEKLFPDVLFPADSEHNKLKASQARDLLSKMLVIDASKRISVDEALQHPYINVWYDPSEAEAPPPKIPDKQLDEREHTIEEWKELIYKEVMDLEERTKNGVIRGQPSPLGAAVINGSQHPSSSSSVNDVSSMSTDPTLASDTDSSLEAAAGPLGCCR

CHEK1 (human) = CHEK1 (human) (UniProt O14757)
NTRK2 (human) = NTRK2 (human) (UniProt Q16620)
BTK (human) = BTK (human) (UniProt Q06187)
Sequence of BTK (human) (Q06187 whole entry, looked up): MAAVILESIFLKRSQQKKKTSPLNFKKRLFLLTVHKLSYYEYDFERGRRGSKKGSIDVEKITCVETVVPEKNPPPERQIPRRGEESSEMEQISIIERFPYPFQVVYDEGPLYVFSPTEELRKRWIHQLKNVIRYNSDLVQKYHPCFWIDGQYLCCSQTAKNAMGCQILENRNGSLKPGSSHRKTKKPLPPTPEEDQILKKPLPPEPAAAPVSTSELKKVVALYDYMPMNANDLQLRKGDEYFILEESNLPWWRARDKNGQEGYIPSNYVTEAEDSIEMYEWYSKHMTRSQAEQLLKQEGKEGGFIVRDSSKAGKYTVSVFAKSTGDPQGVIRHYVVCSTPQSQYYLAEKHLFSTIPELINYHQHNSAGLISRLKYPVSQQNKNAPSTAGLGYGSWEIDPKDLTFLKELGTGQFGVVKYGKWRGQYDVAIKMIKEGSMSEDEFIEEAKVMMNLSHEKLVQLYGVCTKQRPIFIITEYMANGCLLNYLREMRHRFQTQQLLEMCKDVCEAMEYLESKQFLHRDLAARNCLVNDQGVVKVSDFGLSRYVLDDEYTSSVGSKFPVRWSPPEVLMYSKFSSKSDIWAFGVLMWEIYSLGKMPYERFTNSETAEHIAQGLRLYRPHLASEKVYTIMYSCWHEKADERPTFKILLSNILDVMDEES

ADRBK1 (human) = ADRBK1 (human) (UniProt P25098)
CSNK1G2 (human) = CSNK1G2 (human) (UniProt P78368)
DAPK2 (human) = DAPK2 (human) (UniProt Q9UIK4)
LYN (human) = LYN (human) (UniProt P07948)
Sequence of LYN (human) (P07948 whole entry, looked up): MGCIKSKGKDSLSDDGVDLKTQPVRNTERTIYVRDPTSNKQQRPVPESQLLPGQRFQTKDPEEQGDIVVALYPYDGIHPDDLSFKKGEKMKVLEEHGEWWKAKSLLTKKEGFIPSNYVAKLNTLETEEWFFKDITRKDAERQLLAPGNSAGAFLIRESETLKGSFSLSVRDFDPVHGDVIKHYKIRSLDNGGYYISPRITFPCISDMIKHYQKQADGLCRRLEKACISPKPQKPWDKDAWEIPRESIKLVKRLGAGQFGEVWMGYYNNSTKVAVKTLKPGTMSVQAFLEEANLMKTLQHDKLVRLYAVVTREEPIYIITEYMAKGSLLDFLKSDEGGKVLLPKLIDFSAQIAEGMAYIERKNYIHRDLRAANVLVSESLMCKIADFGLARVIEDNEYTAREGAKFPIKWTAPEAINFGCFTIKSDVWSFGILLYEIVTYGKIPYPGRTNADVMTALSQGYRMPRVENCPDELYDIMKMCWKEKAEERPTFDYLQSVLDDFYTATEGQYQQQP

MINK1 (human) = MINK1 (human) (UniProt Q8N4C8)
SRPK2 (human) = SRPK2 (human) (UniProt P78362)
RPS6KB2 (human) = RPS6KB2 (human) (UniProt Q9UBS0)
Sequence of RPS6KB2 (human) (Q9UBS0 whole entry, looked up): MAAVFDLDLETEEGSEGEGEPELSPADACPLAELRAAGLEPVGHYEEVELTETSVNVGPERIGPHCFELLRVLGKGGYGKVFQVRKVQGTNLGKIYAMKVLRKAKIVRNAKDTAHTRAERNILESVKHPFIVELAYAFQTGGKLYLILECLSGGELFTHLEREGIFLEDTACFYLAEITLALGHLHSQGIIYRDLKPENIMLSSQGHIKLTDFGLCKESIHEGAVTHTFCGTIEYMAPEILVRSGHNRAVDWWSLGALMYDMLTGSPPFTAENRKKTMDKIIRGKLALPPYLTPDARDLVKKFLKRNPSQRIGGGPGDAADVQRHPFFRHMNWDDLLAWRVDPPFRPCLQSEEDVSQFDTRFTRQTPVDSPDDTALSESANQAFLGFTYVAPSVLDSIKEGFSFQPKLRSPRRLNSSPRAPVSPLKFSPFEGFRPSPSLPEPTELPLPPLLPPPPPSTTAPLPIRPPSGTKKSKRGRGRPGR

ULK2 (human) = ULK2 (human) (UniProt Q8IYT8)
CDK4 CCND1 (human) = CDK4 CCND1 (human) (UniProt P24385+P11802)
[2] = tested on: MAP2K6 (human), P52564 [S207E/T211E]
TAOK2 (human) = TAOK2 (human) (UniProt Q9UL54)
PRKCH (human) = PRKCH (human) (UniProt P24723)
NEK3 (human) = NEK3 (human) (UniProt P51956)
CSNK2A1 (human) = CSNK2A1 (human) (UniProt P68400)
ROS1 (human) = ROS1 (human) (UniProt P08922)
PRKACA (human) = PRKACA (human) (UniProt P17612)
GSK3A (human) = GSK3A (human) (UniProt P49840)
HIPK1 (human) = HIPK1 (human) (UniProt Q86Z02)
NEK7 (human) = NEK7 (human) (UniProt Q8TDX7)
WNK2 (human) = WNK2 (human) (UniProt Q9Y3S1)
MAP4K2 (human) = MAP4K2 (human) (UniProt Q12851)
NEK6 (human) = NEK6 (human) (UniProt Q9HC98)
STK17A (human) = STK17A (human) (UniProt Q9UEE5)
Sequence of STK17A (human) (Q9UEE5 whole entry, looked up): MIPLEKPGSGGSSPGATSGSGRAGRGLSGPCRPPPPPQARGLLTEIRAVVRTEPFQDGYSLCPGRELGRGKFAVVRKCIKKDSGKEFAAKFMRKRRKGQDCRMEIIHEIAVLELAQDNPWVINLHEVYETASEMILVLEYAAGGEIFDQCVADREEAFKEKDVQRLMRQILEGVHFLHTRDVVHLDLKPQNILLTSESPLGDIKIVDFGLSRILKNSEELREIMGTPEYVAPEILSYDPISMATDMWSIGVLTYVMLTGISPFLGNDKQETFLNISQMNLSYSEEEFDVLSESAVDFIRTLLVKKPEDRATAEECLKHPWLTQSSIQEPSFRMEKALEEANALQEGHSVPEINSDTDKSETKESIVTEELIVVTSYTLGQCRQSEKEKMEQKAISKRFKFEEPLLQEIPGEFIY

FGR (human) = FGR (human) (UniProt P09769)
SIK2 (human) = SIK2 (human) (UniProt Q9H0K1)
LRRK2 (human) = LRRK2 (human) (UniProt Q5S007)
Sequence of LRRK2 (human) (Q5S007 whole entry, looked up): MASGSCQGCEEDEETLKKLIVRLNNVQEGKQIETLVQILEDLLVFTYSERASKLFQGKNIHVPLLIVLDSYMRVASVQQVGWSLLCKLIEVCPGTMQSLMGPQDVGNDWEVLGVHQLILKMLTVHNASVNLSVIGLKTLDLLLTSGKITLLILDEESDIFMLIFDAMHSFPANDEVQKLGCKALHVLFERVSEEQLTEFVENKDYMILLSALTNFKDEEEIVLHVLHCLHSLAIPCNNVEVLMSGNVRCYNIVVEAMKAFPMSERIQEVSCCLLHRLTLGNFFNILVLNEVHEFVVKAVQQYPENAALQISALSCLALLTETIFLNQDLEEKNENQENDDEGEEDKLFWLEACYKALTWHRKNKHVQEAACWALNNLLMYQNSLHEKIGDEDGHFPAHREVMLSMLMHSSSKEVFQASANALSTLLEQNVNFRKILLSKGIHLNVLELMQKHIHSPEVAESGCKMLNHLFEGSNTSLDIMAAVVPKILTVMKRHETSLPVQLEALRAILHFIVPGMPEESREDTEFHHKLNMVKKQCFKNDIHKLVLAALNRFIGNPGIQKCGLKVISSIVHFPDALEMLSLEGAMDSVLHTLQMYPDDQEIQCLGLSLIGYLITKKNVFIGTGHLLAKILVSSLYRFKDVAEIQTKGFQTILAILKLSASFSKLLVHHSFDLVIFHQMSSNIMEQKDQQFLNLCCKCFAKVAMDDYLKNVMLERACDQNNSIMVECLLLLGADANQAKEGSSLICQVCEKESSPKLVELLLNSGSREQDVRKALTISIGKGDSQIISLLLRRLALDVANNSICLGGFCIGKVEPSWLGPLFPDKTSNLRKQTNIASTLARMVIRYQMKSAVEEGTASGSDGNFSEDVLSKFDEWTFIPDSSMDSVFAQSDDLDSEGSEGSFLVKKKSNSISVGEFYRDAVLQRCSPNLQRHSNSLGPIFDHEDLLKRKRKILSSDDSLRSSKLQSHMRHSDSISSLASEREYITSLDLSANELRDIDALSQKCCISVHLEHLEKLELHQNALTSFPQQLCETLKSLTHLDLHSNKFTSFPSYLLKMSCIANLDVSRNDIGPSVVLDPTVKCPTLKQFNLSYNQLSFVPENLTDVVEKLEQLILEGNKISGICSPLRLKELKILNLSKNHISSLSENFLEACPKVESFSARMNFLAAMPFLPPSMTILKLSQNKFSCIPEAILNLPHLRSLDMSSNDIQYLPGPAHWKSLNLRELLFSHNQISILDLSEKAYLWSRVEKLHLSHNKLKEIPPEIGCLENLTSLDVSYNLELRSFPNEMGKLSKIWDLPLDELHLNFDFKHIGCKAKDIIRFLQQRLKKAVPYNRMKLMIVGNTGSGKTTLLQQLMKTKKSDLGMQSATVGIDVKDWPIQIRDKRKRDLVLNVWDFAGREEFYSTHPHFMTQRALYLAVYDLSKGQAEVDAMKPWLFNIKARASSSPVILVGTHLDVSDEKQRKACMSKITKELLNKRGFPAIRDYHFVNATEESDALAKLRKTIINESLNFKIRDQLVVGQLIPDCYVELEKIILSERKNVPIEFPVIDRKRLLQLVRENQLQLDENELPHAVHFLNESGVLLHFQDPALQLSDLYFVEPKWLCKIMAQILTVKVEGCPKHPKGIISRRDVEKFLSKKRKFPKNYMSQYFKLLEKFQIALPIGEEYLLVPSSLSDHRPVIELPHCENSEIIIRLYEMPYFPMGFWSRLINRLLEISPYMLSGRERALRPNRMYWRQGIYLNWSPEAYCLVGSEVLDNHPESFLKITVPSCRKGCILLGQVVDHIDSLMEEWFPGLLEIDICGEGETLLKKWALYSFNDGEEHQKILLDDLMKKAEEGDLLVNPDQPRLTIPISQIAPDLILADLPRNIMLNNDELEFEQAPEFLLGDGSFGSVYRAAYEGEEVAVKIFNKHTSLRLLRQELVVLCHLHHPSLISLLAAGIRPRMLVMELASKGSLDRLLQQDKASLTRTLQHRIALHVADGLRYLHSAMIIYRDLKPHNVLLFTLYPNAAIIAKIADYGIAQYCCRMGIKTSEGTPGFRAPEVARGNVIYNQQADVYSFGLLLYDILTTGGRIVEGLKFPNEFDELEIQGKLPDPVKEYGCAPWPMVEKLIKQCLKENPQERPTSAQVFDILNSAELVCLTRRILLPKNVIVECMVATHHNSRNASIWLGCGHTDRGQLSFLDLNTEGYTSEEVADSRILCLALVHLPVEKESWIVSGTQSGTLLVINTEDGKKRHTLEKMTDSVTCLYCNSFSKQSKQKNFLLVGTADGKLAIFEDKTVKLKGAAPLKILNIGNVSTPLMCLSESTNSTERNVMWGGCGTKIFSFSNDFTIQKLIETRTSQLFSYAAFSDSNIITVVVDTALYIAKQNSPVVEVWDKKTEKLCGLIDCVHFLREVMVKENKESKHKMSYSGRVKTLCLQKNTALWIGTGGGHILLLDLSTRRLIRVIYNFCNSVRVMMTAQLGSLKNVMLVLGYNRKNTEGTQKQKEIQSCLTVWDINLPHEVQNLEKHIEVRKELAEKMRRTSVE

DYRK1A (human) = DYRK1A (human) (UniProt Q13627)

Which results are given for `CN(C)c1ccc(/C=C2\C(=O)Nc3ccccc32)cc1`?
residual activity (MARK3 (human)): 101%; residual activity (IRAK4 (human)): 104%; residual activity (MAP4K4 (human)): 74.5%; residual activity (ACVR1 (human)): 104%; residual activity (STK25 (human)): 90.2%; residual activity (STK24 (human)): 96.7%; residual activity (PRKCB1 (human)): 96.1%; residual activity [1]: 97.3%; residual activity (MARK4 (human)): 97%; residual activity (MAP3K2 (human)): 99.8%; residual activity (SRMS (human)): 97.9%; residual activity (MAPK8 (human)): 103%; residual activity (CHEK1 (human)): 98.2%; residual activity (NTRK2 (human)): 54.8%; residual activity (BTK (human)): 104%; residual activity (ADRBK1 (human)): 101%; residual activity (CSNK1G2 (human)): 96.7%; residual activity (DAPK2 (human)): 105%; residual activity (LYN (human)): 108% and 97.8%; residual activity (MINK1 (human)): 79%; residual activity (SRPK2 (human)): 100%; residual activity (RPS6KB2 (human)): 101%; residual activity (ULK2 (human)): 97.1%; residual activity (CDK4 CCND1 (human)): 97.7%; residual activity [2]: 94.7%; residual activity (TAOK2 (human)): 102%; residual activity (PRKCH (human)): 92.3%; residual activity (NEK3 (human)): 95.2%; residual activity (CSNK2A1 (human)): 89.7%; residual activity (ROS1 (human)): 94.9%; residual activity (PRKACA (human)): 104%; residual activity (GSK3A (human)): 104%; residual activity (HIPK1 (human)): 103%; residual activity (NEK7 (human)): 102%; residual activity (WNK2 (human)): 104%; residual activity (MAP4K2 (human)): 109%; residual activity (NEK6 (human)): 96.9%; residual activity (STK17A (human)): 93.8%; residual activity (FGR (human)): 90%; residual activity (SIK2 (human)): 101%; residual activity (LRRK2 (human)): 89.8%; residual activity (DYRK1A (human)): 103%

Which results are given for `COc1ccc2c(c1)c(C1=C(c3c[nH]c4ccccc34)C(=O)NC1=O)cn2CCCN(C)C`?
residual activity (MARK3 (human)): 92.2%; residual activity (IRAK4 (human)): 91.2%; residual activity (MAP4K4 (human)): 37.8%; residual activity (ACVR1 (human)): 98%; residual activity (STK25 (human)): 55.7%; residual activity (STK24 (human)): 36.6%; residual activity (PRKCB1 (human)): 19.3%; residual activity [1]: 92.8%; residual activity (MARK4 (human)): 95.9%; residual activity (MAP3K2 (human)): 80.6%; residual activity (SRMS (human)): 95.9%; residual activity (MAPK8 (human)): 80%; residual activity (CHEK1 (human)): 88.8%; residual activity (NTRK2 (human)): 88.1%; residual activity (BTK (human)): 90.2%; residual activity (ADRBK1 (human)): 99%; residual activity (CSNK1G2 (human)): 82.2%; residual activity (DAPK2 (human)): 81.1%; residual activity (LYN (human)): 112% and 94.2%; residual activity (MINK1 (human)): 78.6%; residual activity (SRPK2 (human)): 88%; residual activity (RPS6KB2 (human)): 65.4%; residual activity (ULK2 (human)): 96.1%; residual activity (CDK4 CCND1 (human)): 78.6%; residual activity [2]: 91.6%; residual activity (TAOK2 (human)): 80.8%; residual activity (PRKCH (human)): 6.85%; residual activity (NEK3 (human)): 98.3%; residual activity (CSNK2A1 (human)): 95.9%; residual activity (ROS1 (human)): 52.4%; residual activity (PRKACA (human)): 77.9%; residual activity (GSK3A (human)): 14%; residual activity (HIPK1 (human)): 77.7%; residual activity (NEK7 (human)): 99.1%; residual activity (WNK2 (human)): 96.5%; residual activity (MAP4K2 (human)): 56.3%; residual activity (NEK6 (human)): 101%; residual activity (STK17A (human)): 84%; residual activity (FGR (human)): 107%; residual activity (SIK2 (human)): 103%; residual activity (LRRK2 (human)): 87%; residual activity (DYRK1A (human)): 84.7%

What does the source list for `COc1ccc(Cl)cc1NC(=O)Nc1cc(C)nc2ccccc12`?
residual activity (MARK3 (human)): 126%; residual activity (IRAK4 (human)): 99.9%; residual activity (MAP4K4 (human)): 84.7%; residual activity (ACVR1 (human)): 76.2%; residual activity (STK25 (human)): 101%; residual activity (STK24 (human)): 81.6%; residual activity (PRKCB1 (human)): 105%; residual activity [1]: 101%; residual activity (MARK4 (human)): 79.7%; residual activity (MAP3K2 (human)): 98%; residual activity (SRMS (human)): 97.6%; residual activity (MAPK8 (human)): 104%; residual activity (CHEK1 (human)): 96.6%; residual activity (NTRK2 (human)): 94.6%; residual activity (BTK (human)): 102%; residual activity (ADRBK1 (human)): 100%; residual activity (CSNK1G2 (human)): 98.5%; residual activity (DAPK2 (human)): 99.1%; residual activity (LYN (human)): 111% and 99.2%; residual activity (MINK1 (human)): 88.7%; residual activity (SRPK2 (human)): 94.9%; residual activity (RPS6KB2 (human)): 106%; residual activity (ULK2 (human)): 106%; residual activity (CDK4 CCND1 (human)): 98.8%; residual activity [2]: 89.9%; residual activity (TAOK2 (human)): 98.2%; residual activity (PRKCH (human)): 88.6%; residual activity (NEK3 (human)): 114%; residual activity (CSNK2A1 (human)): 97.9%; residual activity (ROS1 (human)): 92.5%; residual activity (PRKACA (human)): 101%; residual activity (GSK3A (human)): 124%; residual activity (HIPK1 (human)): 97.2%; residual activity (NEK7 (human)): 103%; residual activity (WNK2 (human)): 104%; residual activity (MAP4K2 (human)): 114%; residual activity (NEK6 (human)): 97.8%; residual activity (STK17A (human)): 98.1%; residual activity (FGR (human)): 92%; residual activity (SIK2 (human)): 87.8%; residual activity (LRRK2 (human)): 98%; residual activity (DYRK1A (human)): 103%

`NC(=O)c1cccc(-c2cc(Nc3ccc(OC(F)(F)F)cc3)ncn2)c1` was tested. Which residual activity (MARK3 (human)) did it give?
The residual activity was 100%.

What about the residual activity (IRAK4 (human)) of the same compound?
Its residual activity is 159%.

And the residual activity (MAP4K4 (human))?
The residual activity was 104%.

And the residual activity (ACVR1 (human))?
The residual activity was 99.4%.

What about the residual activity (STK25 (human)) of the same compound?
Its residual activity is 94.5%.

And the residual activity (STK24 (human))?
Its residual activity is 89.5%.

What about the residual activity (PRKCB1 (human)) of the same compound?
Its residual activity is 97.4%.

What about the residual activity [1] of the same compound?
Its residual activity is 95.9%.

And the residual activity (MARK4 (human))?
The residual activity was 98.1%.

And the residual activity (MAP3K2 (human))?
Its residual activity is 79.5%.

What about the residual activity (SRMS (human)) of the same compound?
Its residual activity is 93.4%.

What about the residual activity (MAPK8 (human)) of the same compound?
Its residual activity is 90.3%.

And the residual activity (CHEK1 (human))?
The residual activity was 94.2%.

What about the residual activity (NTRK2 (human)) of the same compound?
Its residual activity is 96%.

What about the residual activity (BTK (human)) of the same compound?
The residual activity was 99.1%.

What about the residual activity (ADRBK1 (human)) of the same compound?
The residual activity was 96.1%.

What about the residual activity (CSNK1G2 (human)) of the same compound?
Its residual activity is 89.5%.

What about the residual activity (DAPK2 (human)) of the same compound?
Its residual activity is 99.1%.

What about the residual activity (LYN (human)) of the same compound?
The residual activity was 101% and 99.8%.

And the residual activity (SRPK2 (human))?
The residual activity was 105%.

And the residual activity (RPS6KB2 (human))?
Its residual activity is 102%.

And the residual activity (ULK2 (human))?
The residual activity was 103%.

And the residual activity (CDK4 CCND1 (human))?
The residual activity was 99.8%.

And the residual activity [2]?
The residual activity was 101%.

What about the residual activity (TAOK2 (human)) of the same compound?
Its residual activity is 91%.

And the residual activity (PRKCH (human))?
Its residual activity is 98.4%.

What about the residual activity (NEK3 (human)) of the same compound?
Its residual activity is 121%.

What about the residual activity (CSNK2A1 (human)) of the same compound?
The residual activity was 94.6%.

And the residual activity (PRKACA (human))?
The residual activity was 94.2%.

And the residual activity (GSK3A (human))?
Its residual activity is 93.9%.

What about the residual activity (HIPK1 (human)) of the same compound?
Its residual activity is 102%.

What about the residual activity (NEK7 (human)) of the same compound?
Its residual activity is 96.3%.

And the residual activity (WNK2 (human))?
The residual activity was 115%.

What about the residual activity (MAP4K2 (human)) of the same compound?
Its residual activity is 132%.

And the residual activity (NEK6 (human))?
The residual activity was 97.4%.

And the residual activity (STK17A (human))?
Its residual activity is 98.7%.

What about the residual activity (FGR (human)) of the same compound?
The residual activity was 96.8%.

And the residual activity (SIK2 (human))?
The residual activity was 108%.

What about the residual activity (LRRK2 (human)) of the same compound?
Its residual activity is 108%.

And the residual activity (DYRK1A (human))?
Its residual activity is 101%.
